Reference: patent US8192962B2, “Processes for detecting toxic substances” (Daikin Industries, Ltd., priority 2001, dated 2012)

Tested on: Detoxification protein genes
Assay: DNA chip mRNA expression in yeast, detoxification protein genes (Table 8)
Type: cell-based, Saccharomyces cerevisiae S288C
Summary of the method: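 Expression change after 2 h toxicant exposure (growth-inhibiting, sub-lethal) of log-phase S. cerevisiae S288C at 25° C. Oligo-dT-purified mRNA was labeled with Cy3-dUTP or Cy5-dUTP and hybridized >12 h at 65° C. to a genome-wide chip; ratio of scanned fluorescence to control.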

`Cl[C@H]1[C@H](Cl)[C@@H](Cl)[C@@H](Cl)[C@H](Cl)[C@H]1Cl` [(7), γ-hexachlorocyclohexane] was tested, and the “The level of expressed mRNA in the presence of chemical substance/The level of expressed mRNA in the absence of chemical substance” value (yeast gene YBL064C) was 2.5, the “The level of expressed mRNA in the presence of chemical substance/The level of expressed mRNA in the absence of chemical substance” value (yeast gene YBR008C) was 0.9 and the “The level of expressed mRNA in the presence of chemical substance/The level of expressed mRNA in the absence of chemical substance” value (yeast gene YBR145W) was 58.8. The “The level of expressed mRNA in the presence of chemical substance/The level of expressed mRNA in the absence of chemical substance” value (yeast gene YBR244W) was 0.6, the “The level of expressed mRNA in the presence of chemical substance/The level of expressed mRNA in the absence of chemical substance” value (yeast gene YBR293W) was 0.9 and the “The level of expressed mRNA in the presence of chemical substance/The level of expressed mRNA in the absence of chemical substance” value (yeast gene YCL035C) was 2.7. For the same compound, the “The level of expressed mRNA in the presence of chemical substance/The level of expressed mRNA in the absence of chemical substance” value (yeast gene YCL069W) was 1.4, the “The level of expressed mRNA in the presence of chemical substance/The level of expressed mRNA in the absence of chemical substance” value (yeast gene YCR083W) was 1.8 and the “The level of expressed mRNA in the presence of chemical substance/The level of expressed mRNA in the absence of chemical substance” value (yeast gene YDL100C) was 1.6. For the same compound, the “The level of expressed mRNA in the presence of chemical substance/The level of expressed mRNA in the absence of chemical substance” value (yeast gene YDL168W) was 1.1, the “The level of expressed mRNA in the presence of chemical substance/The level of expressed mRNA in the absence of chemical substance” value (yeast gene YDR256C) was 0.6 and the “The level of expressed mRNA in the presence of chemical substance/The level of expressed mRNA in the absence of chemical substance” value (yeast gene YDR453C) was 1.0. The “The level of expressed mRNA in the presence of chemical substance/The level of expressed mRNA in the absence of chemical substance” value (yeast gene YDR513W) was 1.6, the “The level of expressed mRNA in the presence of chemical substance/The level of expressed mRNA in the absence of chemical substance” value (yeast gene YDR538W) was 1.2 and the “The level of expressed mRNA in the presence of chemical substance/The level of expressed mRNA in the absence of chemical substance” value (yeast gene YEL027W) was 0.8. For the same compound, the “The level of expressed mRNA in the presence of chemical substance/The level of expressed mRNA in the absence of chemical substance” value (yeast gene YEL065W) was 4.3, the “The level of expressed mRNA in the presence of chemical substance/The level of expressed mRNA in the absence of chemical substance” value (yeast gene YER185W) was 1.1 and the “The level of expressed mRNA in the presence of chemical substance/The level of expressed mRNA in the absence of chemical substance” value (yeast gene YFL050C) was 0.8. The “The level of expressed mRNA in the presence of chemical substance/The level of expressed mRNA in the absence of chemical substance” value (yeast gene YGL013C) was 0.9, the “The level of expressed mRNA in the presence of chemical substance/The level of expressed mRNA in the absence of chemical substance” value (yeast gene YGL254W) was 1.3 and the “The level of expressed mRNA in the presence of chemical substance/The level of expressed mRNA in the absence of chemical substance” value (yeast gene YGR088W) was 0.8. For the same compound, the “The level of expressed mRNA in the presence of chemical substance/The level of expressed mRNA in the absence of chemical substance” value (yeast gene YGR138C) was 0.7, the “The level of expressed mRNA in the presence of chemical substance/The level of expressed mRNA in the absence of chemical substance” value (yeast gene YGR197C) was 1.3 and the “The level of expressed mRNA in the presence of chemical substance/The level of expressed mRNA in the absence of chemical substance” value (yeast gene YGR209C) was 1.7. For the same compound, the “The level of expressed mRNA in the presence of chemical substance/The level of expressed mRNA in the absence of chemical substance” value (yeast gene YGR224W) was 0.4, the “The level of expressed mRNA in the presence of chemical substance/The level of expressed mRNA in the absence of chemical substance” value (yeast gene YHL040C) was 4.0 and the “The level of expressed mRNA in the presence of chemical substance/The level of expressed mRNA in the absence of chemical substance” value (yeast gene YHL047C) was 16.8. The “The level of expressed mRNA in the presence of chemical substance/The level of expressed mRNA in the absence of chemical substance” value (yeast gene YHR008C) was 0.7, the “The level of expressed mRNA in the presence of chemical substance/The level of expressed mRNA in the absence of chemical substance” value (yeast gene YHR048W) was 0.8 and the “The level of expressed mRNA in the presence of chemical substance/The level of expressed mRNA in the absence of chemical substance” value (yeast gene YHR053C) was 1.2. The “The level of expressed mRNA in the presence of chemical substance/The level of expressed mRNA in the absence of chemical substance” value (yeast gene YHR055C) was 1.1, the “The level of expressed mRNA in the presence of chemical substance/The level of expressed mRNA in the absence of chemical substance” value (yeast gene YIR002C) was 1.3 and the “The level of expressed mRNA in the presence of chemical substance/The level of expressed mRNA in the absence of chemical substance” value (yeast gene YIR038C) was 2.0. The “The level of expressed mRNA in the presence of chemical substance/The level of expressed mRNA in the absence of chemical substance” value (yeast gene YJL101C) was 1.0, the “The level of expressed mRNA in the presence of chemical substance/The level of expressed mRNA in the absence of chemical substance” value (yeast gene YJR104C) was 1.1 and the “The level of expressed mRNA in the presence of chemical substance/The level of expressed mRNA in the absence of chemical substance” value (yeast gene YKL026C) was 2.5. The “The level of expressed mRNA in the presence of chemical substance/The level of expressed mRNA in the absence of chemical substance” value (yeast gene YKL064W) was 1.1, the “The level of expressed mRNA in the presence of chemical substance/The level of expressed mRNA in the absence of chemical substance” value (yeast gene YKR066C) was 0.5 and the “The level of expressed mRNA in the presence of chemical substance/The level of expressed mRNA in the absence of chemical substance” value (yeast gene YKR105C) was 1.0. For the same compound, the “The level of expressed mRNA in the presence of chemical substance/The level of expressed mRNA in the absence of chemical substance” value (yeast gene YKR106W) was 0.9, the “The level of expressed mRNA in the presence of chemical substance/The level of expressed mRNA in the absence of chemical substance” value (yeast gene YLL028W) was 1.0 and the “The level of expressed mRNA in the presence of chemical substance/The level of expressed mRNA in the absence of chemical substance” value (yeast gene YLL057C) was 1.6. The “The level of expressed mRNA in the presence of chemical substance/The level of expressed mRNA in the absence of chemical substance” value (yeast gene YLL060C) was 2.0, the “The level of expressed mRNA in the presence of chemical substance/The level of expressed mRNA in the absence of chemical substance” value (yeast gene YLR043C) was 2.6 and the “The level of expressed mRNA in the presence of chemical substance/The level of expressed mRNA in the absence of chemical substance” value (yeast gene YLR046C) was 1.5. The “The level of expressed mRNA in the presence of chemical substance/The level of expressed mRNA in the absence of chemical substance” value (yeast gene YML028W) was 0.8, the “The level of expressed mRNA in the presence of chemical substance/The level of expressed mRNA in the absence of chemical substance” value (yeast gene YML116W) was 1.4 and the “The level of expressed mRNA in the presence of chemical substance/The level of expressed mRNA in the absence of chemical substance” value (yeast gene YMR015C) was 0.4. For the same compound, the “The level of expressed mRNA in the presence of chemical substance/The level of expressed mRNA in the absence of chemical substance” value (yeast gene YMR038C) was 1.1, the “The level of expressed mRNA in the presence of chemical substance/The level of expressed mRNA in the absence of chemical substance” value (yeast gene YNL239W) was 2.1 and the “The level of expressed mRNA in the presence of chemical substance/The level of expressed mRNA in the absence of chemical substance” value (yeast gene YNL241C) was 3.2. The “The level of expressed mRNA in the presence of chemical substance/The level of expressed mRNA in the absence of chemical substance” value (yeast gene YNL259C) was 3.8, the “The level of expressed mRNA in the presence of chemical substance/The level of expressed mRNA in the absence of chemical substance” value (yeast gene YOL158C) was 1.6 and the “The level of expressed mRNA in the presence of chemical substance/The level of expressed mRNA in the absence of chemical substance” value (yeast gene YOR031W) was 1.3. The “The level of expressed mRNA in the presence of chemical substance/The level of expressed mRNA in the absence of chemical substance” value (yeast gene YOR153W) was 2.6, the “The level of expressed mRNA in the presence of chemical substance/The level of expressed mRNA in the absence of chemical substance” value (yeast gene YOR247W) was 0.5 and the “The level of expressed mRNA in the presence of chemical substance/The level of expressed mRNA in the absence of chemical substance” value (yeast gene YOR251C) was 1.0. For the same compound, the “The level of expressed mRNA in the presence of chemical substance/The level of expressed mRNA in the absence of chemical substance” value (yeast gene YOR273C) was 0.4, the “The level of expressed mRNA in the presence of chemical substance/The level of expressed mRNA in the absence of chemical substance” value (yeast gene YPL163C) was 0.4 and the “The level of expressed mRNA in the presence of chemical substance/The level of expressed mRNA in the absence of chemical substance” value (yeast gene YPR200C) was 1.3.
